According to patent publication US20120328628A1, “ANTIBODIES TO CONFORMATIONALLY TRAPPED PROTEINS” (The Regents of the University of California, priority 2006, published 2012):

Target: T1, wild-type caspase-1 (Homo sapiens, UniProt P29466)
T1 construct: single site alanine mutants for each of these residues in either the p10 or p20 subunit; made in house; E. coli is printed only for caspase-4/-5 made by the caspase-1 procedure
T1 sequence (P29466 120-297 limits assumed): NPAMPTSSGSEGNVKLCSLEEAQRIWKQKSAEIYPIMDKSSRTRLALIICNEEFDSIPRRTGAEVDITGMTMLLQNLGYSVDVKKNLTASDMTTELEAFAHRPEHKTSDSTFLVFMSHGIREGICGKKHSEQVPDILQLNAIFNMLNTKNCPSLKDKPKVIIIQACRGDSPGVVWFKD
T1 sequence (P29466 317-404 limits assumed): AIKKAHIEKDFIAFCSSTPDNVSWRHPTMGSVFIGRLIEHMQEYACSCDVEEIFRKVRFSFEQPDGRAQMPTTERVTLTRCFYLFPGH
Test: Titration of wild-type caspase-1 with z-VAD-FMK
Format: biochemical
Description: To test this, wild-type caspase-1 was titrated with inhibitor and found to produce a 2-fold activation when one reaches 0.2 equivalents of z-VAD-FMK. […] If the inhibitor labeled in a non-cooperative fashion we would expect that it would reach an optimum upon addition of about 0.5 equivalents and would cause a […] activation as half of the sites are inactivated. The fact this maxima is below 0.5 equivalents and is less than […] probably reflects that labeling is cooperative too. […] Thus, we have developed a second assay for evaluating the active site coupling.

In the case of z-VAD-FMK, the “activation of wild-type caspase-1” value (0.2 equivalents of inhibitor) is reported as 2 fold and the “inhibition of wild-type caspase-1” value (approaching one equivalent of inhibitor) is reported as “complete inhibition”.
